Patent US8952024B2, “Herbicidal pyrimidone derivatives” (E I du Pont de Nemours and Company, priority 2009, dated 2015)

Assays:
Experiment in all cases: Test D pre-/postemergence plant response
Type in all cases: in vivo
[1] = tested on: sandbur (southern sandbur, Cenchrus echinatus); settings: Postemergence
Excerpt: (§1) Seeds of plant species selected from bermudagrass (Cynodon dactylon), Surinam grass (Brachiaria decumbens), large crabgrass (Digitaria sanguinalis), green foxtail (Setaria viridis), goosegrass (Eleusine indica), johnsongrass (Sorghum halepense), kochia (Kochia scoparia), morningglory (pitted morningglory, Ipomoea lacunosa), nutsedge (purple nutsedge, Cyperus rotundus), ragweed (common ragweed, Ambrosia elatior), black mustard (Brassica nigra), guineagrass (Panicum maximum), dallisgrass (Paspalum dilatatum), barnyardgrass (Echinochloa crus-galli), sandbur (southern sandbur, Cenchrus echinatus), sowthistle (common sowthistle, Sonchus oleraceous), prickly sida (Sida spinosa), Italian ryegrass (Lolium multiflorum), purslane (common purslane, Portulaca oleracea), signalgrass (broadleaf signalgrass, Brachiaria platyphylla), groundsel (common groundsel, Senecio vulgaris), chickweed (common chickweed, Stellaria media), dayflower (Virginia (VA) dayflower, Commelina virginica), bluegrass (annual bluegrass, Poa annua), naked crabgrass (Digitaria nuda), itchgrass (Rottboellia cochinchinensis), quackgrass (Elytrigia repens), field bindweed (Convolvulus arvensis), spanishneedles (Bidens bipinnata), mallow (common mallow, Malva sylvestris) and Russian thistle (Salsola kali), were planted into a blend of loam soil and sand and treated preemergence with test chemicals formulated in a non-phytotoxic solvent mixture which included a surfactant. At the same time, plants from these weed species were treated with postemergence applications of the test chemicals formulated in the same manner. Plants ranged in height from 2 to 18 cm (1- to 4-leaf stage) for postemergence treatments.
(§2) Treated plants and controls were maintained in a greenhouse for 14 to 21 days, after which time all species were visually evaluated and compared to controls. Plant response ratings, summarized in Table D, are based on a scale of 0 to 100 where 0 is no effect and 100 is complete control. A dash (-) response means no test result.

[2] = tested on: black mustard (Brassica nigra); settings: Postemergence, scale 0 to 100 (0 no effect, 100 complete control)
Excerpt: as §1, §2

[3] = tested on: goosegrass (Eleusine indica); settings: Postemergence
Excerpt: as §1, §2

[4] = tested on: bermudagrass (Cynodon dactylon); settings: Postemergence, scale 0 to 100 (0 no effect, 100 complete control)
Excerpt: as §1, §2

[5] = tested on: field bindweed (Convolvulus arvensis); settings: Postemergence
Excerpt: as §1, §2

[6] = tested on: prickly sida (Sida spinosa); settings: Postemergence
Excerpt: as §1, §2

[7] = tested on: dallisgrass (Paspalum dilatatum); settings: Postemergence
Excerpt: as §1, §2

[8] = tested on: sowthistle (common sowthistle, Sonchus oleraceous); settings: Postemergence
Excerpt: as §1, §2

[9] = tested on: Italian ryegrass (Lolium multiflorum); settings: Postemergence
Excerpt: as §1, §2

[10] = 62 g ai/ha, scale 0 to 100 (0 no effect, 100 complete control)
[11] = 125 g ai/ha, scale 0 to 100 (0 no effect, 100 complete control)
[12] = 250 g ai/ha, scale 0 to 100 (0 no effect, 100 complete control)

COCCCn1c(-c2cccc(F)c2)ncc(C(=O)C2=C(O)C3CCC(C3)C2=O)c1=O (stereo not shown) [Compound 238]
Plant response rating, Sandbur ([1]; 31 g ai/ha, scale 0 to 100): 50 | Plant response rating, Sandbur [1, 10]: 75 | Plant response rating, Sandbur [1, 11]: 75 | Plant response rating, Sandbur [1, 12]: 85 | Plant response rating, Black Mustard ([2]; 31 g ai/ha): 80 | Plant response rating, Black Mustard ([2]; 62 g ai/ha): 95 | Plant response rating, Black Mustard ([2]; 125 g ai/ha): 98 | Plant response rating, Black Mustard ([2]; 250 g ai/ha): 98 | Plant response rating, Goosegrass ([3]; 31 g ai/ha, scale 0 to 100): 50 | Plant response rating, Goosegrass [3, 10]: 70 | Plant response rating, Goosegrass [3, 11]: 75 | Plant response rating, Goosegrass [3, 12]: 75 | Plant response rating, Bermudagrass ([4]; 31 g ai/ha): 80 | Plant response rating, Bermudagrass ([4]; 62 g ai/ha): 90 | Plant response rating, Bermudagrass ([4]; 125 g ai/ha): 95 | Plant response rating, Bermudagrass ([4]; 250 g ai/ha): 95 | Plant response rating, Field Bindweed ([5]; 31 g ai/ha, scale 0 to 100): 35 | Plant response rating, Field Bindweed [5, 10]: 50 | Plant response rating, Field Bindweed [5, 12]: 50 | Plant response rating, Prickly Sida ([6]; 31 g ai/ha, scale 0 to 100): 30 | Plant response rating, Prickly Sida [6, 10]: 30 | Plant response rating, Prickly Sida [6, 11]: 50 | Plant response rating, Prickly Sida [6, 12]: 65 | Plant response rating, Dallisgrass ([7]; 31 g ai/ha, scale 0 to 100): 10 | Plant response rating, Dallisgrass [7, 10]: 65 | Plant response rating, Dallisgrass [7, 11]: 70 | Plant response rating, Dallisgrass [7, 12]: 75 | Plant response rating, Sowthistle ([8]; 31 g ai/ha, scale 0 to 100): 95 | Plant response rating, Sowthistle [8, 10]: 95 | Plant response rating, Sowthistle [8, 11]: 95 | Plant response rating, Sowthistle [8, 12]: 95 | Plant response rating, Ryegrass, Italian ([9]; 31 g ai/ha, scale 0 to 100): 5 | Plant response rating, Ryegrass, Italian [9, 10]: 5 | Plant response rating, Ryegrass, Italian [9, 11]: 5 | Plant response rating, Ryegrass, Italian [9, 12]: 5

COCCn1c(-c2ccsc2)ncc(C(=O)C2=C(O)C3CCC(C3)C2=O)c1=O (stereo not shown) [Compound 228]
Plant response rating, Sandbur [1, 11]: 5 | Plant response rating, Black Mustard ([2]; 31 g ai/ha): 20 | Plant response rating, Black Mustard ([2]; 125 g ai/ha): 50 | Plant response rating, Goosegrass [3, 11]: 70 | Plant response rating, Bermudagrass ([4]; 31 g ai/ha): 70 | Plant response rating, Bermudagrass ([4]; 125 g ai/ha): 70 | Plant response rating, Field Bindweed [5, 11]: 70 | Plant response rating, Prickly Sida [6, 11]: 65 | Plant response rating, Dallisgrass [7, 11]: 5 | Plant response rating, Sowthistle [8, 11]: 98 | Plant response rating, Ryegrass, Italian [9, 11]: 5
